Results on 39 compounds are retold here after ChEMBL document CHEMBL5137031, “The structure-based design of peptidomimetic inhibitors against SARS-CoV-2 3C like protease as Potent anti-viral drug candidate” (Eur J Med Chem, 2022).

The term IC50 denotes the concentration that inhibits the measured activity by half. Usually EC50 stands for the concentration needed to bring the measured effect to its halfway point.

For data set [1], the target named is Replicase polyprotein 1ab (Severe acute respiratory syndrome coronavirus 2, UniProt P0DTD1). Nature of the data set: Inhibition of SARS-CoV-2 3CL protease expressed in Escherichia coli BL21 (DE3) cells assessed as change in relative fluorescence unit using MCA-TSAVLQSGFRK(DNP)M as substrate preincubated for 30 mins followed by substrate addition and measured after 2 hrs by microplate reader based FRET assay.

The test system of data set [2] is A549. Put plainly: Cytotoxicity against human A549 cells assessed as inhibition of cell growth measured after 24 hrs by MTT assay. As to conditions: a549, 24 h. The data set is classed as toxicity, cell-based. On the technique in general: Formazan colour is commonly taken as a measure of viable cells.
Data set [3] has as its system SARS-CoV-2. Put plainly: Antiviral activity against SARS-CoV-2 WIV04 infected in African green monkey Vero cells assessed as inhibition of viral proliferation measured at 24 hrs post infection by qRT-PCR analysis. The data set is classed as functional, organism-based. The following applies: Severe acute respiratory syndrome coronavirus 2, WIV04, Vero.
Data set [4] concerns SARS-CoV-2. Put plainly: Antiviral activity against SARS-CoV-2 WIV04 infected in African green monkey Vero cells assessed as log reduction in viral RNA at 10 uM measured at 24 hrs post infection by qRT-PCR analysis. The data set is classed as functional, Severe acute respiratory syndrome coronavirus 2. (Real-time PCR tracks product formation cycle by cycle.)
Data set [5] relates to Vero. Nature of the data set: Cytotoxicity against African green monkey Vero cells assessed as reduction in cell viability incubated for 48 hrs by CCK8 assay. The data set is classed as toxicity, cell-based. As to conditions: chlorocebus sabaeus.

As to `CC(C)[C@H](NC(=O)/C=C/c1ccccc1)C(=O)N[C@H](C=O)C[C@@H]1CCCNC1=O`, in data set [1], the concentration for half-maximal inhibition (IC50) was 6930 nM. Moreover, the Activity entry in data set [2] was “Non-Toxic”. Besides, the EC50 in data set [3] was over 3000 nM.
For `O=C[C@H](C[C@@H]1CCNC1=O)NC(=O)[C@H](Cc1cccc(F)c1)NC(=O)c1cc2ccccc2[nH]1`, in data set [1], the IC50 turned out to be 858 nM. Besides, the Activity entry in data set [2] is “Non-Toxic”. Moreover, in data set [3], the concentration for a half-maximal effect (EC50) was found to be 360 nM.
The matching figures for `CC(C)C[C@H](NC(=O)[C@@H](NC(=O)c1cc2ccccc2[nH]1)C(C)C)C(=O)N[C@H](C=O)C[C@@H]1CCCNC1=O`: 295 nM, “Non-Toxic” and over 3000 nM.
Take `CCC[C@H](NC(=O)/C=C/c1ccccc1)C(=O)N[C@@H](CC(C)C)C(=O)N[C@H](C=O)C[C@@H]1CCCNC1=O`: in data set [1], the concentration for half-maximal inhibition (IC50) was 543 nM. Moreover, the Activity entry in data set [2] is given as “Non-Toxic”. Moreover, the 50% effective concentration (EC50) in data set [3] was over 3000 nM.
The matching figures for `CC(C)C[C@H](NC(=O)[C@@H](NC(=O)C1CCOCC1)C(C)C)C(=O)N[C@H](C=O)C[C@@H]1CCCNC1=O`: 285 nM, “Non-Toxic” and over 3000 nM.
Taken in the same sequence, the figures for `C#CC[C@H](NC(=O)/C=C/c1ccccc1)C(=O)N[C@H](C=O)C[C@@H]1CCCNC1=O` were 3280 nM, “Non-Toxic” and over 3000 nM.
Taken in the same sequence, the figures for `CC(C)C[C@H](NC(=O)[C@@H](NC(=O)c1ccco1)C(C)C)C(=O)N[C@H](C=O)C[C@@H]1CCCNC1=O` were 234 nM, “Non-Toxic” and over 3000 nM.
For `Cc1ccc(/C=C/C(=O)N[C@H](C(=O)N[C@@H](CC(C)C)C(=O)N[C@H](C=O)C[C@@H]2CCCNC2=O)C(C)C)cc1`, the concentration for half-maximal inhibition (IC50) in data set [1] worked out at 196 nM. Moreover, the Activity entry in data set [2] was “Non-Toxic”. The 50% effective concentration (EC50) in data set [3] is over 3000 nM.
With `CC(C)C[C@H](NC(=O)[C@@H](NC(=O)C1CCCCC1)C(C)C)C(=O)N[C@H](C=O)C[C@@H]1CCCNC1=O`, the half-maximal inhibitory concentration (IC50) in data set [1] was determined as 1410 nM. The Activity result in data set [2] is “Non-Toxic”. Further, the concentration for a half-maximal effect (EC50) in data set [3] was over 3000 nM.
In the case of `CC(C)C[C@H](NC(=O)[C@@H](NC(=O)/C=C/c1ccc(-c2ccccc2)cc1)C(C)C)C(=O)N[C@H](C=O)C[C@@H]1CCCNC1=O`, the half-maximal inhibitory concentration (IC50) in data set [1] is 295 nM. Further, in data set [2], the Activity entry is recorded as “Non-Toxic”. Moreover, the half-maximal effective concentration (EC50) in data set [3] was over 3000 nM.
The matching figures for `CC(C)C[C@H](NC(=O)[C@@H](NC(=O)c1cccnc1)C(C)C)C(=O)N[C@H](C=O)C[C@@H]1CCCNC1=O`: 640 nM, “Non-Toxic” and over 3000 nM.
The matching figures for `C#CC[C@H](NC(=O)/C=C/c1ccccc1)C(=O)N[C@H](C=O)C[C@@H]1CCNC1=O`: 3890 nM, “Non-Toxic” and over 3000 nM.
The matching figures for `CC(C)C[C@H](NC(=O)[C@@H](NC(=O)CCc1ccccc1)C(C)C)C(=O)N[C@H](C=O)C[C@@H]1CCCNC1=O`: 199 nM, “Non-Toxic” and over 3000 nM.
In the case of `CC(C)C[C@H](NC(=O)[C@@H](NC(=O)c1ccc(C(F)(F)F)cc1)C(C)C)C(=O)N[C@H](C=O)C[C@@H]1CCCNC1=O`, in data set [1], the IC50 is 1430 nM. Moreover, the Activity entry in data set [2] was “Non-Toxic”. For the same compound, the concentration giving a half-maximal response (EC50) in data set [3] is over 3000 nM.
For the compound `CC(C)(C)[C@H](NC(=O)/C=C/c1ccccc1)C(=O)N[C@H](C=O)C[C@@H]1CCCNC1=O`, in data set [1], the half-maximal inhibitory concentration (IC50) came to 3440 nM. For the same compound, the Activity entry in data set [2] is “Non-Toxic”. In addition, in data set [3], the concentration for a half-maximal effect (EC50) is over 3000 nM. Besides, the “log(activity)” value in data set [4] is 2.
For the compound `CC(C)C[C@H](NC(=O)[C@@H](NC(=O)/C=C/c1ccccc1)C(C)C)C(=O)N[C@H](C=O)C[C@@H]1CCCNC1=O`, the half-maximal inhibitory concentration (IC50) in data set [1] was determined as 281 nM. The Activity entry in data set [2] is recorded as “Non-Toxic”. The EC50 in data set [3] is over 3000 nM.
The matching figures for `CC(C)C[C@H](NC(=O)[C@@H](NC(=O)c1ccc[nH]1)C(C)C)C(=O)N[C@H](C=O)C[C@@H]1CCCNC1=O`: 172 nM, “Non-Toxic” and over 3000 nM.
As for `O=C[C@H](C[C@@H]1CCCNC1=O)NC(=O)[C@@H](NC(=O)/C=C/c1ccccc1)c1ccccc1`, in data set [1], the IC50 was found to be 2040 nM. Moreover, the Activity entry in data set [2] is “Non-Toxic”. Moreover, the half-maximal effective concentration (EC50) in data set [3] was over 3000 nM.
Take `CC(C)C[C@H](NC(=O)[C@@H](NC(=O)c1ccc(F)cc1)C(C)C)C(=O)N[C@H](C=O)C[C@@H]1CCCNC1=O`: the IC50 in data set [1] was 197 nM. The Activity entry in data set [2] was “Non-Toxic”. Moreover, the EC50 in data set [3] was over 3000 nM.
The matching figures for `CC(C)C[C@H](NC(=O)[C@@H](NC(=O)/C=C/c1ccc(N(C)C)cc1)C(C)C)C(=O)N[C@H](C=O)C[C@@H]1CCCNC1=O`: 592 nM, “Non-Toxic” and over 3000 nM.
The matching figures for `CC(C)C[C@H](NC(=O)[C@@H](NC(=O)/C=C/c1ccc(C(C)C)cc1)C(C)C)C(=O)N[C@H](C=O)C[C@@H]1CCCNC1=O`: 230 nM, “Non-Toxic” and over 3000 nM.
Regarding `CC[C@H](C)[C@H](NC(=O)/C=C/c1ccccc1)C(=O)N[C@@H](CC(C)C)C(=O)N[C@H](C=O)C[C@@H]1CCCNC1=O`, the IC50 in data set [1] is 357 nM. In addition, the Activity entry in data set [2] was “Non-Toxic”. Moreover, in data set [3], the EC50 is over 3000 nM.
The matching figures for `CC(C)C[C@H](NC(=O)[C@@H](NC(=O)c1ccccc1)C(C)C)C(=O)N[C@H](C=O)C[C@@H]1CCCNC1=O`: 257 nM, “Non-Toxic” and over 3000 nM.
Taken in the same sequence, the figures for `CC(C)C[C@H](NC(=O)[C@@H](NC(=O)c1ccc(-c2ccccc2)cc1)C(C)C)C(=O)N[C@H](C=O)C[C@@H]1CCCNC1=O` were 404 nM, “Non-Toxic” and over 3000 nM.
Taken in the same sequence, the figures for `CC(C)C[C@H](NC(=O)[C@@H](NC(=O)c1ccc(Cl)cc1)C(C)C)C(=O)N[C@H](C=O)C[C@@H]1CCCNC1=O` were 148 nM, “Non-Toxic” and over 3000 nM.
For the compound `CC(C)C[C@H](NC(=O)[C@@H](NC(=O)c1ccc2cc[nH]c2c1)C(C)C)C(=O)N[C@H](C=O)C[C@@H]1CCCNC1=O`, the half-inhibitory concentration (IC50) in data set [1] came out at 221 nM. Besides, in data set [2], the Activity entry was “Non-Toxic”. Further, the EC50 in data set [3] is over 3000 nM.
On to `CC(C)C[C@H](NC(=O)/C=C/c1ccccc1)C(=O)N[C@H](C=O)C[C@@H]1CCNC1=O`, for which the half-maximal inhibitory concentration (IC50) in data set [1] turned out to be 374 nM. For the same compound, the Activity entry in data set [2] and in data set [5] was “Non-Toxic” throughout. In data set [3], the EC50 was 1060 nM. Also, in data set [4], the “log(activity)” value was 2.
On to `CC(C)C[C@H](NC(=O)[C@@H](NC(=O)c1ccccn1)C(C)C)C(=O)N[C@H](C=O)C[C@@H]1CCCNC1=O`, for which the IC50 in data set [1] came to 565 nM. Moreover, the Activity entry in data set [2] is “Non-Toxic”. In addition, in data set [3], the concentration giving a half-maximal response (EC50) is over 3000 nM.
Taken in the same sequence, the figures for `CC(C)C[C@H](NC(=O)[C@@H](NC(=O)/C=C/c1ccccc1F)C(C)C)C(=O)N[C@H](C=O)C[C@@H]1CCCNC1=O` were 173 nM, “Non-Toxic” and over 3000 nM.
On to `CC(C)C[C@H](NC(=O)[C@@H](NC(=O)/C=C/c1cccc(F)c1)C(C)C)C(=O)N[C@H](C=O)C[C@@H]1CCCNC1=O`, for which the half-maximal inhibitory concentration (IC50) in data set [1] was 255 nM. Further, the Activity result in data set [2] was “Non-Toxic”. Also, the EC50 in data set [3] was over 3000 nM.
Take `O=C[C@H](C[C@@H]1CCCNC1=O)NC(=O)[C@H](CC1CC1)NC(=O)/C=C/c1ccccc1`: the IC50 in data set [1] is 298 nM. Also, the Activity entry in data set [2] and in data set [5] was “Non-Toxic” each time. For the same compound, the half-maximal effective concentration (EC50) in data set [3] turned out to be 1130 nM.
As to `CC(C)C[C@H](NC(=O)[C@@H](NC(=O)c1ccoc1)C(C)C)C(=O)N[C@H](C=O)C[C@@H]1CCCNC1=O`, the IC50 in data set [1] was 173 nM. Also, the Activity result in data set [2] is “Non-Toxic”. Moreover, the concentration for a half-maximal effect (EC50) in data set [3] is over 3000 nM.
The matching figures for `CC(C)C[C@H](NC(=O)[C@@H](NC(=O)/C=C/c1ccc(F)cc1)C(C)C)C(=O)N[C@H](C=O)C[C@@H]1CCCNC1=O`: 307 nM, “Non-Toxic” and over 3000 nM.
The matching figures for `C[C@H](NC(=O)/C=C/c1ccccc1)C(=O)N[C@H](C=O)C[C@@H]1CCCNC1=O`: 12300 nM, “Non-Toxic” and over 3000 nM.
Taken in the same sequence, the figures for `CC(C)C[C@H](NC(=O)[C@@H](NC(=O)c1ccc([N+](=O)[O-])cc1)C(C)C)C(=O)N[C@H](C=O)C[C@@H]1CCCNC1=O` were 209 nM, “Non-Toxic” and over 3000 nM.
Take `CC(C)C[C@H](NC(=O)[C@@H](NC(=O)c1ccncc1)C(C)C)C(=O)N[C@H](C=O)C[C@@H]1CCCNC1=O`: the IC50 in data set [1] is 153 nM. In addition, in data set [2], the Activity result is given as “Non-Toxic”. In addition, in data set [3], the 50% effective concentration (EC50) is over 3000 nM.
Taken in the same sequence, the figures for `CCCC[C@H](NC(=O)/C=C/c1ccccc1)C(=O)N[C@H](C=O)C[C@@H]1CCCNC1=O` were 277 nM, “Non-Toxic” and over 3000 nM.
The matching figures for `C=CC[C@H](NC(=O)/C=C/c1ccccc1)C(=O)N[C@H](C=O)C[C@@H]1CCCNC1=O`: 1340 nM, “Non-Toxic” and over 3000 nM.
Regarding `COc1ccc(/C=C/C(=O)N[C@H](C(=O)N[C@@H](CC(C)C)C(=O)N[C@H](C=O)C[C@@H]2CCCNC2=O)C(C)C)cc1`, the IC50 in data set [1] turned out to be 249 nM. Moreover, the Activity entry in data set [2] is on record as “Non-Toxic”. Besides, the 50% effective concentration (EC50) in data set [3] is over 3000 nM.
